Data taken from article PMC6332026, “Synthesis and Pharmacochemistry of New Pleiotropic Pyrrolyl Derivatives” (Molecules, 2015).

Experiment: Interaction with the stable free radical DPPH (reducing activity)
Settings: 1000 μM compound, DPPH 50 μM
Description: 2,2-Diphenyl-1-picrylhydrazyl (DPPH) is a lipophilic, free, stable radical, which absorbs at 517 nm (violet color). Upon reduction, decolorization is observed that is stoichiometric to the number of received electrons and is representative of the antioxidant ability of compounds. […] This interaction, which indicates their radical scavenging ability in an iron-free system, was measured at 100 and 1000 μM after 20 and 60 min, whereas the final concentration of DPPH was stable at 50 μΜ.
[…] The absorbance was measured at 517 nm after 20 and 60 min at room temperature.

Structure (SMILES) | RA % (interaction with DPPH) (20 min) [%] | RA % (interaction with DPPH) (60 min) [%]
O=C(c1cccs1)c1c[nH]cc1-c1ccc(OCc2ccc(Br)cc2)cc1 [Compound 2iii, (4-{4-[(4-Bromobenzyl)oxy]phenyl}-1H-pyrrol-3-yl)(thien-2-yl)methanone] | 4 | 5
O=C(c1ccccc1)c1c[nH]cc1-c1cccc2ccccc12 [Compound 2iv, [4-(Naphth-1-yl)-1H-pyrrol-3-yl](phenyl)methanone] | 8 | 10
